Patent US6316014A, “Microcide composition” (Centro de Bioactivos Quimicos (CBQ), priority 1996, dated 2001)

Key:
[1] = Water solubility and dissolution of active principle; format: physicochemical
Musa sp. = assay: Development of "in vitro" plants of Musa sp., multiplication phase (scaleup); conditions: scaleups, standard method 1%
Procedure: An effective washout of the flasks and lids to be used in the production of in vitro plants was conducted using detergent, rinsing them with sufficient water and to then submerging the bottles in a sodium hypochlorite solution at 0.5% for a time interval never smaller than 3 minutes. Afterwards, the flasks are placed upside down and they should be used totally dry before 24 hours.
Once the culture medium is prepared and reaches a temperature of approximately 60-80° C. it is added the necessary weight of the formulation to obtain a concentration of 35 μg/ml and, then the volume required is poured into each of the flasks proceeding to the planting procedure after 24 hours.
Two scaleup studies were conducted on a Musa sp. culture in the multiplication phase. The death rate percentage during the three assays was 0.81% for the scaleups conducted adding the active principle and 1% for the standard method.
Two scaleup studies were conducted on a Musa sp. culture in the multiplication phase.

[2] = Thermal stability of active principle; format: physicochemical
bacteria and fungi = conditions: EP-A 0 678 516; cited from earlier work
[3] = system: contamination of culture media; conditions: plants cultivated in vitro; cited from earlier work

Question: Which “Dissolution rate in an aqueous medium” value ([1]; aqueous medium) does the source give for `O=[N+]([O-])C(Br)=Cc1ccc(Br)o1` [1-(5-bromophur-2-yl)-2-bromo-2-nitroethene] here?
Answer: reduced dissolution rate

Question: And the Water solubility ([1]; water)?
Answer: close-to-null water solubility

Question: And the Death rate percentage (Musa sp.)?
Answer: 0.81%

Question: And the “Thermally stable up to” value [2]?
Answer: up to 110 °C

Question: And the “Antibacterial and antifungal activities” value (bacteria and fungi)?
Answer: powerful agent with antibacterial and antifungal activities

Question: With `CO[C@@H]1[C@@H](OC(N)=O)[C@@H](O)[C@H](Oc2ccc3c(O)c(NC(=O)c4ccc(O)c(CC=C(C)C)c4)c(=O)oc3c2C)OC1(C)C` [Novobiocin] as the compound, how does the Prevention of contamination [3] read?
Answer: without satisfactory results

Question: Which Prevention of contamination [3] does the source give for `CO/N=C(\C(=O)N[C@@H]1C(=O)N2C(C(=O)O)=C(COC(C)=O)CS[C@H]12)c1csc(N)n1` [Cefotaxim] here?
Answer: without satisfactory results

Question: For `CN[C@@H]1[C@H](O[C@H]2[C@H](O[C@H]3[C@H](O)[C@@H](O)[C@H](NC(=N)N)[C@@H](O)[C@@H]3NC(=N)N)O[C@@H](C)[C@]2(O)CO)O[C@@H](CO)[C@H](O)[C@H]1O` [Dihydrostreptomycin], which Prevention of contamination [3] is on record?
Answer: without satisfactory results
